Data as given in PMC6044955 (ACS Omega, 2017).

Key:
Assay type in all cases: cell-based
[1] = biological target: hα3β2 nAChR (Homo sapiens, UniProt P17787+P32297)
[2] = biological target: hα3β4 nAChR (Homo sapiens, UniProt P30926+P32297)
[3] = biological target: hα9α10 nAChR (Homo sapiens, UniProt Q9GZZ6+Q9UGM1)
Sequence of hα9α10 nAChR (Q9UGM1 26-479 limits assumed): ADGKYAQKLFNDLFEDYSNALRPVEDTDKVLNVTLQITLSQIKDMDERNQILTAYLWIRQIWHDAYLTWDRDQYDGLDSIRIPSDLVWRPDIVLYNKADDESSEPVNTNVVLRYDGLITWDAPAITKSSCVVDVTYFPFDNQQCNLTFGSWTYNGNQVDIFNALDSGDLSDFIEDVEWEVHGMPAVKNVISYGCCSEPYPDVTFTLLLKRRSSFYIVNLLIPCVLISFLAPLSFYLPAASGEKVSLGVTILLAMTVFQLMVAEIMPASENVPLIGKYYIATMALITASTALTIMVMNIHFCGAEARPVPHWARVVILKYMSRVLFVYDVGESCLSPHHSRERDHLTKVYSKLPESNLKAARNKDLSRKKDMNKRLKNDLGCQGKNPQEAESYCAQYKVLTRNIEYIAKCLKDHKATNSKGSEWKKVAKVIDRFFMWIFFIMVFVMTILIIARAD
Sequence of hα9α10 nAChR (Q9GZZ6 25-450): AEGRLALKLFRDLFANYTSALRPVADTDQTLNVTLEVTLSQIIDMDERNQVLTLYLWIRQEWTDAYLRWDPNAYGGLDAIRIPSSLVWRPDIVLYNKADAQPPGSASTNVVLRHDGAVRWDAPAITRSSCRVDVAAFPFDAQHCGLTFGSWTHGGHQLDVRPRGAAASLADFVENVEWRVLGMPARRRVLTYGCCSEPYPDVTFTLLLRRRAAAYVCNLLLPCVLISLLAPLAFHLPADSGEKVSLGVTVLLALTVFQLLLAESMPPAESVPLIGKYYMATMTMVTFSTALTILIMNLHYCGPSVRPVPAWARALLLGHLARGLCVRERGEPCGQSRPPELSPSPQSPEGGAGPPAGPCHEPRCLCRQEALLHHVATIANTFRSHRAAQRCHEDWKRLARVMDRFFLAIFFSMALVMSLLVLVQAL

Sequence of hα3β2 nAChR (P32297 32-505): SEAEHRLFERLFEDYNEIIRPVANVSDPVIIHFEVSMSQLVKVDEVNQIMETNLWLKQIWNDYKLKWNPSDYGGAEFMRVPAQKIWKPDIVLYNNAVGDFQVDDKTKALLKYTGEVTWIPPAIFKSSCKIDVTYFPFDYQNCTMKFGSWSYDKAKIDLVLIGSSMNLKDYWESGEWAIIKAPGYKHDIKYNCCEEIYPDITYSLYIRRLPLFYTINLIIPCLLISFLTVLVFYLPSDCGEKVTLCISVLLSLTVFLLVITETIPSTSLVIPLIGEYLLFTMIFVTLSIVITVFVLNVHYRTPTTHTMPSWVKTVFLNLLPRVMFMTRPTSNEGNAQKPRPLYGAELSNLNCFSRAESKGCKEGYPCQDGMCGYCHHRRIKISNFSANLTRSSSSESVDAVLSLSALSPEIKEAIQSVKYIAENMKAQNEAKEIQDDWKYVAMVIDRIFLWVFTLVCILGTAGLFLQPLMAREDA
Sequence of hα3β2 nAChR (P17787 26-502): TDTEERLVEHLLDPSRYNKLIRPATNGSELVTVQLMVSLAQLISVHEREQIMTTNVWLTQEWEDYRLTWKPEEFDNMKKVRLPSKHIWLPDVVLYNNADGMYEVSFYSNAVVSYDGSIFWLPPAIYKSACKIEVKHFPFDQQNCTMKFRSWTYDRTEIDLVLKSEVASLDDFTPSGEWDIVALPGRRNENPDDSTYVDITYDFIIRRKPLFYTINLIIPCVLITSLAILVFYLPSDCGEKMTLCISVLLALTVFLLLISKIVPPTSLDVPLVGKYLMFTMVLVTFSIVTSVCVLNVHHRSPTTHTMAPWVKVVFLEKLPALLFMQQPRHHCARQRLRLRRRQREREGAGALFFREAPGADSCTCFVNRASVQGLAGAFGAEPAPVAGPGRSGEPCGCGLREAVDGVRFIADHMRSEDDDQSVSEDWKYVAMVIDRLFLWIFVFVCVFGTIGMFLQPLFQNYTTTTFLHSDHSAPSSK
Sequence of hα3β4 nAChR (P32297 32-505): as the sequence (P32297 32-505) above
Sequence of hα3β4 nAChR (P30926 22-498): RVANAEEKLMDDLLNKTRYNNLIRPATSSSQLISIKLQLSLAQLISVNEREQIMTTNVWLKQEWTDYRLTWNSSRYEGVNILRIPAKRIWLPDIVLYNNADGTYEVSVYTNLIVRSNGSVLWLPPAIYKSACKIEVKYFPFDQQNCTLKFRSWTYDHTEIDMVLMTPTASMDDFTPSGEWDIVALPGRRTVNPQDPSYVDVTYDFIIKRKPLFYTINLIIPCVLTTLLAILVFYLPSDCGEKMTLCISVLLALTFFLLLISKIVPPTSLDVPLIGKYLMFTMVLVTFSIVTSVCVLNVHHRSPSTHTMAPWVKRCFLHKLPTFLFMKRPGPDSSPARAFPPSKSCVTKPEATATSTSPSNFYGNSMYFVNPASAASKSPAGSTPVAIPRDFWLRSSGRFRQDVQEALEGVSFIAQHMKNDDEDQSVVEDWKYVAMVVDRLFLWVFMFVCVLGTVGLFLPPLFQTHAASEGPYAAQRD

Substance	Inhibition of the ACh-evoked current amplitude at hα3β2 nAChR [1] [%]	Inhibition of the ACh-evoked current amplitude at hα3β4 nAChR [2] [%]	Inhibition of ACh-evoked current at hα9α10 nAChR [3]	Inhibition of ACh-evoked current at hα3β2 nAChR [1]
α-conotoxin BuIA	> 90	> 90		
α-conotoxin Vc1.1			complete inhibition	complete inhibition
